The test addresses T1, human orexin type 2 receptor (Homo sapiens, UniProt O43614).
T1 construct: expressed in transfected cells
T1 sequence (O43614 1-444): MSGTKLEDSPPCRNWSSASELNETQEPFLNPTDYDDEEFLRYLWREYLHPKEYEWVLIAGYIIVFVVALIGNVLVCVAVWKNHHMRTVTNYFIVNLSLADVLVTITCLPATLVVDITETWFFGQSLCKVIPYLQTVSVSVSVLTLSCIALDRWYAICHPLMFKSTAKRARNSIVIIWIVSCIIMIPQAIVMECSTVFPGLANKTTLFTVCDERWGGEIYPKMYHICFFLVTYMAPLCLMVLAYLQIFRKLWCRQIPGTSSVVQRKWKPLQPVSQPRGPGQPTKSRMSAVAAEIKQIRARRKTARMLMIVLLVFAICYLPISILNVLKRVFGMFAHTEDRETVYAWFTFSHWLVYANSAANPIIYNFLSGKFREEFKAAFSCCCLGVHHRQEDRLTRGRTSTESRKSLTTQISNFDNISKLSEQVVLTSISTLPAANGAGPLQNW
Nature of the test: Measurement of orexin type 2 receptor agonist activity (calcium fluorescence, Fluo-4 AM, FDSS) in CHO cells forcibly expressing human OX2 receptor. The format is cell-based. Particulars: test compound 3 μM, DMSO = 0%, orexin A (human) 10 nM = 100%. From the text: To obtain a cell clone stably expressing human orexin type 2 receptor, human orexin type 2 receptor cDNA was inserted into pcDNA3.1(+) plasmid vector (Invitrogen), and a plasmid DNA for expression of human orexin type 2 receptor (pcDNA3.1(+)/hOX2R) was cloned. The plasmid DNA was introduced into CHO-dhfr cell by an electroporation method, and human orexin type 2 receptor expressing clone cells were obtained by limiting dilution method by using G418 drug resistance as a selection marker.
CHO cells forcibly expressing human OX2 receptor were seeded in each well of 384 well black transparent bottom plate (BD Falcon) at 7,500 cells/well, and cultured for one day in a 5% CO2 incubator at 37° C. After removal of the medium in the cell plate, assay buffer A containing a calcium indicator (HBSS (Thermo Fisher Scientific), 20 mM HEPES (Thermo Fisher Scientific), 0.1% BSA (Sigma-Aldrich), 2.5 μg/mL Fluo-4 AM (DOJINDO Chemical), 0.08% Pluronic F127 (DOJINDO Chemical), 1.25 mM probenecid (DOJINDO Chemical)) was added at 30 μL/well. The plate was stood for 30 min in a 5% CO2 incubator at 37° C., and further stood at room temperature for 30 min. A test compound prepared by diluting with assay buffer B (HBSS, 20 mM HEPES, 0.1% BSA) was added at 10 μL/well, and the fluorescence value was measured by FDSSpCELL (Hamamatsu Photonics K.K.) every one sec for 1 min, and thereafter every two sec for 1 min 40 sec. The activity (%) of the test compound was calculated assuming that variation in the fluorescence value when DMSO was added instead of the test compound was 0%, and variation in the fluorescence value when orexin A (human) (PEPTIDE INSTITUTE, INC.) was added at the final concentration of 10 nM was 100%.
Turning to `CC(C)n1cnc2c(c1=O)[C@@H](Cc1ccccc1Oc1ccccc1)[C@@H](NS(C)(=O)=O)CC2` (racemic) [Example 133, rac-N-[(5R,6S)-4-oxo-5-[(2-phenoxyphenyl)methyl]-3-(propan-2-yl)-3,4,5,6,7,8-hexahydroquinazolin-6-yl]methanesulfonamide], the “0X2R agonist activity (3 μM, %)” value is 72%. In the case of `Cn1cc2n(c1=O)C(Cc1cccc(-c3ccccc3)c1)C(NC(=O)[C@@H]1CCCO1)CC2` (mixture of isomers) [Example 205, (2S)-N-{(5SR,6SR)-5-[([1,1′-biphenyl]-3-yl)methyl]-2-methyl-3-oxo-2,3,5,6,7,8-hexahydroimidazo[1,5-a]pyridin-6-yl}oxolane-2-carboxamide], the “0X2R agonist activity (3 μM, %)” value was 81%.

Consider `CC(C)=Cc1cccc(C[C@@H]2c3c(ncn(C(C)C)c3=O)CC[C@@H]2NS(=O)(=O)C2(F)CC2)c1` (racemic) [Example 197, rac-1-fluoro-N-[(5R,6S)-5-{[3-(2-methylprop-1-en-1-yl)phenyl]methyl}-4-oxo-3-(propan-2-yl)-3,4,5,6,7,8-hexahydroquinazolin-6-yl]cyclopropane-1-sulfonamide], for which the “0X2R agonist activity (3 μM, %)” value is recorded as 92%. As to `CC1OC[C@@H]2CC[C@H](NS(C)(=O)=O)[C@H](Cc3cccc(-c4cccc(F)c4)c3)N2C1=O` (relative stereo) [Example 140, rel-N-{(6S,7S,9aS)-6-[(3′-fluoro[1,1′-biphenyl]-3-yl)methyl]-3-methyl-4-oxooctahydropyrido[2,1-c][1,4]oxazin-7-yl}methanesulfonamide], the “0X2R agonist activity (3 μM, %)” value turned out to be 94%. Consider `CC(C)n1cnc2c(c1=O)C(Cc1cccc(-c3ccccc3)c1)C(NS(C)(=O)=O)C(F)C2=O` (racemic) [Example 179, N-[(5RS,6RS)-5-[([1,1′-biphenyl]-3-yl)methyl]-7-fluoro-4,8-dioxo-3-(propan-2-yl)-3,4,5,6,7,8-hexahydroquinazolin-6-yl]methanesulfonamide], for which the “0X2R agonist activity (3 μM, %)” value came out at 100%. `CCn1ccc2c(c1=O)[C@@H](Cc1cccc(-c3cc(F)cc(C)c3F)c1)[C@@H](NS(C)(=O)=O)CC2` (racemic) [Example 127, rac-N-{(7S,8R)-8-[(2′,5′-difluoro-3′-methyl[1,1′-biphenyl]-3-yl)methyl]-2-ethyl-1-oxo-1,2,5,6,7,8-hexahydroisoquinolin-7-yl}methanesulfonamide]: the “0X2R agonist activity (3 μM, %)” value came to 105%. As for `Cn1cc2n(c1=O)[C@@H](Cc1cccc(-c3cc(F)cc(F)c3)c1)[C@@H](NS(C)(=O)=O)CC2` (racemic) [Example 201, rac-N-{(5S,6S)-5-[(3′,5′-difluoro[1,1′-biphenyl]-3-yl)methyl]-2-methyl-3-oxo-2,3,5,6,7,8-hexahydroimidazo[1,5-a]pyridin-6-yl}methanesulfonamide], the “0X2R agonist activity (3 μM, %)” value came out at 91%. Take `CC(C)n1cnc2c(c1=O)[C@@H](Cc1cccc(-c3cc(F)cc(F)c3)c1F)[C@@H](NS(=O)(=O)C1(F)CC1)CC2` [Example 182, 1-fluoro-N-{(5R,6S)-4-oxo-3-(propan-2-yl)-5-[(2,3′,5′-trifluoro[1,1′-biphenyl]-3-yl)methyl]-3,4,5,6,7,8-hexahydroquinazolin-6-yl}cyclopropane-1-sulfonamide]: the “0X2R agonist activity (3 μM, %)” value worked out at 101%.

As to `Cc1cc(=O)n2c(c1C)CC[C@H](NS(C)(=O)=O)[C@@H]2Cc1cccc(-c2ccccc2)c1` (racemic) [Example 20, rac-N-{(3S,4S)-4-[([1,1′-biphenyl]-3-yl)methyl]-8,9-dimethyl-6-oxo-1,3,4,6-tetrahydro-2H-quinolizin-3-yl}methanesulfonamide], the “0X2R agonist activity (3 μM, %)” value is 113%. For `CC(C)c1nn(C)c2c(c1=O)[C@@H](Cc1cccc(-c3ccccc3)c1)[C@@H](NS(C)(=O)=O)CC2` (relative stereo) [Example 161, rel-N-[(5R,6S)-5-[([1,1′-biphenyl]-3-yl)methyl]-1-methyl-4-oxo-3-(propan-2-yl)-1,4,5,6,7,8-hexahydrocinnolin-6-yl]methanesulfonamide], the “0X2R agonist activity (3 μM, %)” value was 101%.

As to `CC(C)N1CNC2=C(C1=O)[C@@H](Cc1cccc(-c3ccccc3)c1)[C@@H](NS(C)(=O)=O)CC2(F)F` (racemic) [Example 162, rac-N-[(5R,6S)-5-[([1,1′-biphenyl]-3-yl)methyl]-8,8-difluoro-4-oxo-3-(propan-2-yl)-1,2,3,4,5,6,7,8-octahydroquinazolin-6-yl]methanesulfonamide], the “0X2R agonist activity (3 μM, %)” value turned out to be 101%. Regarding `CS(=O)(=O)N[C@H]1CCc2c(Cl)nc(Cl)c(=O)n2[C@H]1Cc1cccc(-c2ccccc2)c1` (racemic) [Example 61, rac-N-{(6S,7S)-6-[([1,1′-biphenyl]-3-yl)methyl]-1,3-dichloro-4-oxo-6,7,8,9-tetrahydro-4H-pyrido[1,2-a]pyrazin-7-yl}methanesulfonamide], the “0X2R agonist activity (3 μM, %)” value is listed as 51%. Consider `CCS(=O)(=O)N[C@H]1CCc2ncn(C(C)C)c(=O)c2[C@H]1Cc1cccc(-c2cccc(C)c2F)c1` (racemic) [Example 83, rac-N-[(5R,6S)-5-[(2′-fluoro-3′-methyl[1,1′-biphenyl]-3-yl)methyl]-4-oxo-3-(propan-2-yl)-3,4,5,6,7,8-hexahydroquinazolin-6-yl]ethanesulfonamide], for which the “0X2R agonist activity (3 μM, %)” value turned out to be 100%.

`CCS(=O)(=O)N[C@H]1CCc2ncn(C(C)C)c(=O)c2[C@H]1Cc1cccc(-c2cc(C)cc(C)n2)c1` (racemic) [Example 102, rac-N-[(5R,6S)-5-{[3-(4,6-dimethylpyridin-2-yl)phenyl]methyl}-4-oxo-3-(propan-2-yl)-3,4,5,6,7,8-hexahydroquinazolin-6-yl]ethanesulfonamide]: the “0X2R agonist activity (3 μM, %)” value turned out to be 100%. Under `CC(C)n1cnc2c(c1=O)C(Cc1csc(-c3ccccc3)n1)C(NS(=O)(=O)C1(F)CC1)CC2` (stereo not drawn) [Example 194, rel-1-fluoro-N-{4-oxo-5-[(2-phenyl-1,3-thiazol-4-yl)methyl]-3-(propan-2-yl)-3,4,5,6,7,8-hexahydroquinazolin-6-yl}cyclopropane-1-sulfonamide] stands 91%. Regarding `Cc1cccc(-c2cccc(C[C@@H]3c4c(ncn(C(C)C)c4=O)CC[C@@H]3NS(C)(=O)=O)c2)c1F` (racemic) [Example 108, rac-N-[(5R,6S)-5-[(2′-fluoro-3′-methyl[1,1′-biphenyl]-3-yl)methyl]-4-oxo-3-(propan-2-yl)-3,4,5,6,7,8-hexahydroquinazolin-6-yl]methanesulfonamide], the “0X2R agonist activity (3 μM, %)” value worked out at 100%. As to `CC(C)n1cnc2c(c1=O)[C@@H](Cc1cccc(-c3cccc(F)c3)c1F)[C@@H](NS(=O)(=O)C1(F)CC1)CC2` [Example 181, N-[(5R,6S)-5-[(2,3′-difluoro[1,1′-biphenyl]-3-yl)methyl]-4-oxo-3-(propan-2-yl)-3,4,5,6,7,8-hexahydroquinazolin-6-yl]-1-fluorocyclopropane-1-sulfonamide], the “0X2R agonist activity (3 μM, %)” value is 91%.

Take `CC(C)n1cnc2c(c1=O)[C@@H](Cc1cc(F)cc(-c3ccccc3)c1)[C@@H](NS(C)(=O)=O)CC2` (relative stereo) [Example 141, rel-N-[(5R,6S)-5-[(5-fluoro[1,1′-biphenyl]-3-yl)methyl]-4-oxo-3-(propan-2-yl)-3,4,5,6,7,8-hexahydroquinazolin-6-yl]methanesulfonamide]: the “0X2R agonist activity (3 μM, %)” value came to 103%. Turning to `Cn1cc2n(c1=O)[C@@H](Cc1cccc(-c3cc(F)cc(F)c3)c1F)[C@@H](NS(C)(=O)=O)CC2` (racemic) [Example 209, rac-N-{(5S,6S)-2-methyl-3-oxo-5-[(2,3′,5′-trifluoro[1,1′-biphenyl]-3-yl)methyl]-2,3,5,6,7,8-hexahydroimidazo[1,5-a]pyridin-6-yl}methanesulfonamide], the “0X2R agonist activity (3 μM, %)” value was 74%. The figure for `CCn1ccc2c(c1=O)[C@@H](Cc1cccc(-c3ccccc3F)c1)[C@@H](NS(C)(=O)=O)CC2` (racemic) [Example 119, rac-N-{(7S,8R)-2-ethyl-8-[(2′-fluoro[1,1′-biphenyl]-3-yl)methyl]-1-oxo-1,2,5,6,7,8-hexahydroisoquinolin-7-yl}methanesulfonamide] is 105%.

These data come from patent publication US12071434B2, “Heterocyclic compound” (Takeda Pharmaceutical Company Limited, priority 2018, dated 2024).
